{"source": "patent US20240217961A1", "about": "(MONOPTEROS THERAPEUTICS, INC., priority 2021, published 2024)", "format_in_all_cases": "in vitro ADME", "key": {"CYP2C9": {"target": "CYP2C9 (Homo sapiens, UniProt P11712)", "sequence (P11712 whole entry)": "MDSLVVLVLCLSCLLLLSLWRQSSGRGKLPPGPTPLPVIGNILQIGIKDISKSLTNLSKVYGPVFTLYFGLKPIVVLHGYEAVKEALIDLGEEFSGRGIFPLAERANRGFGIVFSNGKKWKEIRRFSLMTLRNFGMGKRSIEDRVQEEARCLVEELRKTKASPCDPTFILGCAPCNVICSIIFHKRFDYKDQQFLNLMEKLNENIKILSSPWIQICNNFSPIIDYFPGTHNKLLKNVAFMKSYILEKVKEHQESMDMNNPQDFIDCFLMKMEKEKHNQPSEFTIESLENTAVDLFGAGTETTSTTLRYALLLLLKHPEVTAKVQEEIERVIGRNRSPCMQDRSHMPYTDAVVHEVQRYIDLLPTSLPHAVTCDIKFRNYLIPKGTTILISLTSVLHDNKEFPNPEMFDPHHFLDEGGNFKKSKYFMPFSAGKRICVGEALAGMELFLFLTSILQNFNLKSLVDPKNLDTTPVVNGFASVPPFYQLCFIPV", "experiment": "CYP phenotyping, recombinant CYP enzyme incubation", "experimental": "(§1) These incubations were carried out at a concentration of 1 µM and contained 50 pmol/ml of CYP protein. Samples were taken at 0, 5, 10, 15, 20 and 30 minutes. The CLint and t1/2 were calculated from the data."}, "human CYP2B6": {"target": "T1, human CYP2B6 (Homo sapiens, UniProt P20813)", "T1 sequence (P20813 1-491)": "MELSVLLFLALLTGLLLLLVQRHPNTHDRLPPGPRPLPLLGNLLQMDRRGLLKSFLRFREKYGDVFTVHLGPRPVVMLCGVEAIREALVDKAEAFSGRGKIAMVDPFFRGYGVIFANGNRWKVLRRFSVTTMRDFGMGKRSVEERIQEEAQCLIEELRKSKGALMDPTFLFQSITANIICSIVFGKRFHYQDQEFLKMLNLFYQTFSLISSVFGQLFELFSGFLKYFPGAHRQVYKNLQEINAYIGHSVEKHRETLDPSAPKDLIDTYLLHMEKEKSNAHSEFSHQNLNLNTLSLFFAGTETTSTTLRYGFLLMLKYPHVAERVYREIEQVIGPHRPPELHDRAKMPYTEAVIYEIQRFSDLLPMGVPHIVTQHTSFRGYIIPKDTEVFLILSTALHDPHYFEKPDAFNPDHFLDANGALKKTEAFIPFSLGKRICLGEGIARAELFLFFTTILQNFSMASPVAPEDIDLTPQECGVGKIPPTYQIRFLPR", "experiment": "CYP phenotyping, recombinant CYP enzyme incubation", "experimental": "as §1"}, "human liver microsomes": {"test_system": "human liver microsomes", "experiment": "CYP phenotyping, human liver microsomes with or without specific chemical inhibitors", "conditions": "for Inhibition % / % Remaining at 60 min: human liver microsomes; for % Remaining at 60 min: mean ± SD, n = 3", "experimental": "Human liver microsomes with or without specific inhibitors: By using human liver microsomes with chemical inhibitor, compared to without chemical inhibitor, the incubation was carried out at a concentration of 1 µM with samples taken 0, 15, 30, 45 and 60 min, and analyzed by UPLC-MS/MS to quantitate the concentration of parent remaining. The % remaining was calculated."}}, "data": [{"smiles": "CN1CCC[C@H](CN2c3ccccc3Sc3ccccc32)C1", "note": "[(S)-mepazine, (S)-10-((1-methylpiperidin-3-yl)methyl)-10H-phenothiazine]", "values": [{"measurement": "Contribution %", "setting": "CYP2C9; CYP2C9", "value": 8.24, "unit": "%"}, {"measurement": "contribution %", "setting": "CYP2C9; CYP2C9", "value": 8.24, "unit": "%"}, {"measurement": "half-life at 1 µM", "setting": "CYP2C9; human, recombinant CYP2C9, 1 µM, turnover observed for one or two replicates only, t1/2 reported as minimum", "value": 2.12, "unit": "h"}, {"measurement": "CLint", "setting": "CYP2C9; recombinant CYP2C9, 1 µM, turnover observed for one or two replicates only, Clint reported as maximum", "value": 0.109, "unit": "μL/min/pmol CYP"}, {"measurement": "CLint", "setting": "CYP2C9; recombinant CYP2C9, turnover observed in one of the three replicates", "value": 0.109, "unit": "µL/min/pmol"}, {"measurement": "Contribution %", "setting": "human CYP2B6; CYP2B6", "value": 0.00, "unit": "%"}, {"measurement": "metabolism by recombinant CYP isoform", "setting": "human CYP2B6; recombinant CYP2B6", "value": "not found to substantially metabolize"}, {"measurement": "CLint", "setting": "human CYP2B6; recombinant CYP2B6, 1 µM, turnover not significant and > 80% remaining at last time point reported as 0.00", "value": 0.00, "unit": "μL/min/pmol CYP"}, {"measurement": "t1/2", "setting": "human CYP2B6; recombinant CYP2B6, 1 µM, turnover not significant and > 80% remaining at last time point reported as ∞", "value": "∞"}, {"measurement": "inhibition % of (S)-mepazine metabolism", "setting": "human liver microsomes; human liver microsomes with inhibitor of CYP2C8", "value": "< 20", "unit": "%"}, {"measurement": "Inhibition %", "setting": "human liver microsomes; CYP1A2 (Furafylline)", "value": 31.6, "unit": "%"}, {"measurement": "% Remaining at 60 min", "setting": "human liver microsomes; CYP1A2 (Furafylline)", "value": "55.3 ± 4.07", "unit": "%"}, {"measurement": "Inhibition %", "setting": "human liver microsomes; CYP2A6 (Tranylcypromine)", "value": 25.6, "unit": "%"}, {"measurement": "% Remaining at 60 min", "setting": "human liver microsomes; CYP2A6 (Tranylcypromine)", "value": "53.4 ± 2.69", "unit": "%"}, {"measurement": "Inhibition %", "setting": "human liver microsomes; CYP2B6 (Ticlopidine)", "value": 22.8, "unit": "%"}, {"measurement": "% Remaining at 60 min", "setting": "human liver microsomes; CYP2B6 (Ticlopidine)", "value": "52.6 ± 3.79", "unit": "%"}, {"measurement": "Inhibition %", "setting": "human liver microsomes; CYP2C8 (Montelukast)", "value": 19.3, "unit": "%"}, {"measurement": "% Remaining at 60 min", "setting": "human liver microsomes; CYP2C8 (Montelukast)", "value": "50.5 ± 4.24", "unit": "%"}, {"measurement": "Inhibition %", "setting": "human liver microsomes; CYP2C9 (Sulfaphenazole)", "value": 33.9, "unit": "%"}, {"measurement": "% Remaining at 60 min", "setting": "human liver microsomes; CYP2C9 (Sulfaphenazole)", "value": "57.4± 2.68", "unit": "%"}, {"measurement": "Inhibition %", "setting": "human liver microsomes; CYP2C19 (N-3-benzylnirvanol)", "value": 24.3, "unit": "%"}, {"measurement": "% Remaining at 60 min", "setting": "human liver microsomes; CYP2C19 (N-3-benzylnirvanol)", "value": "53.1 ± 1.75", "unit": "%"}, {"measurement": "Inhibition %", "setting": "human liver microsomes; CYP2D6 (Quinidine)", "value": 74.4, "unit": "%"}, {"measurement": "% Remaining at 60 min", "setting": "human liver microsomes; CYP2D6 (Quinidine)", "value": "80.9 ± 3.69", "unit": "%"}, {"measurement": "Inhibition %", "setting": "human liver microsomes; CYP3A (Ketoconazole)", "value": 21.4, "unit": "%"}, {"measurement": "% Remaining at 60 min", "setting": "human liver microsomes; CYP3A (Ketoconazole)", "value": "50.2 ± 4.00", "unit": "%"}, {"measurement": "Inhibition %", "setting": "human liver microsomes; Without inhibitor", "value": 0.00, "unit": "%"}, {"measurement": "% Remaining at 60 min", "setting": "human liver microsomes; Without inhibitor", "value": "44.7 ± 2.57", "unit": "%"}]}]}
